The values that follow come from the NIST ThermoML archive (doi:10.1021/je100830b).

The structures appear in SMILES notation. Numbers after ± are expanded uncertainties.

For the series the following is noted: 298.15 K; 101.33 kPa; Liquid; Vibrating tube method.

As a reminder, the mass density is the mass of a sample divided by its volume. In the case of `CCO` [ethanol], the mass density stood at 786.4 ± 0.2 kg/m3.

Regarding `CCCO` [propan-1-ol], the mass density worked out at 797.6 ± 0.2 kg/m3.

On to `C[N+](=O)[O-]` [nitromethane], for which the mass density came to 1130.9 ± 0.4 kg/m3. As to `CO` [methanol], the mass density is reported as 786.3 ± 0.2 kg/m3. In the case of `CCCCn1cc[n+](C)c1.COS(=O)(=O)[O-]` [1-butyl-3-methylimidazolium methyl sulfate], the mass density turned out to be 1208 ± 2.8 kg/m3.
